Laboratory results taken from PMC4909201 (PLoS ONE, 2016).
Where two headings read alike, the source gives them in different places. Blank lines part the entries; values can stand above or below the compound they belong to.

What was measured:
[1] = target: thrombin binding to immobilized factor Va (Homo sapiens, UniProt P00734); experiment: SPR: effect of active site inhibitors on thrombin binding to immobilized factor Va
Protocol: (§1) Flows cells were then washed with 1 M ethanolamine for 420 s, followed by the running buffer composed of 20 mM HEPES, 150 mM NaCl, pH 7.4 (HBS) containing 0.01% Tween-80 (HBS-Tw) and 5 mM CaCl2.
(§2) Because of the fast on- and off-rates, all SPR experiments were performed at a flow rate of 25 μl/min [28]. Association times were 120 s and dissociation was monitored by washing the flow cells with HBS-Tw for 600 s. Between runs, flow cells were regenerated with a 45 s wash with HBS-Tw containing 0.5 M CaCl2.
(§3) The rapid approach to equilibrium at the low flow rate nullified any potential mass transport concerns. Nonspecific binding was accounted for by subtracting the control RU values obtained from the unmodified flow cell.

[2] = target: thrombin binding to immobilized γA/γA-fibrin (Homo sapiens, UniProt P00734); experiment: SPR: effect of active site inhibitors on thrombin binding to immobilized γA/γA-fibrin
Protocol: as §1, §2, §3

[3] = target: T1, 125I-thrombin binding to γA/γA-fibrin clots (Homo sapiens, UniProt P00734); experiment: 125I-thrombin binding to γA/γA-fibrin clots; conditions: for Ki: EC50 converted by Cheng-Prusoff with Kd of 125I-thrombin for fibrin, 10 nM 125I-thrombin, 3 μM γA/γA-fibrinogen
T1 construct: purchased Enzyme Research Laboratories (South Bend, IN)

[4] = target: T2, thrombin binding to GpIbα269-286ppp (Homo sapiens, UniProt P00734); experiment: SPR: effect of active site inhibitors on thrombin binding to immobilized GpIbα269-286ppp; conditions: for Change: difference between thrombin binding without inhibitor and at saturating inhibitor; for increase in affinity of thrombin for GpIbα269-286ppp: 2.5 μM inhibitor vs no inhibitor, p < 0.001
T2 construct: purchased Enzyme Research Laboratories (South Bend, IN)
Protocol: Between runs, flow cells were regenerated with 1 M NaCl for 30 s. […] EC50 values were determined as above. […] Binding affinities were calculated as described above.

[5] = target: T3, 125I-thrombin binding to γA/γ′-fibrin clots (Homo sapiens, UniProt P00734); experiment: 125I-thrombin binding to γA/γ′-fibrin clots; conditions: for Ki: EC50 converted by Cheng-Prusoff with Kd of 125I-thrombin for fibrin, 10 nM 125I-thrombin, 1 μM γA/γ′-fibrinogen
T3 construct: purchased Enzyme Research Laboratories (South Bend, IN)

[6] = target: thrombin binding to immobilized γA/γ′-fibrin (Homo sapiens, UniProt P00734); experiment: SPR: effect of active site inhibitors on thrombin binding to immobilized γA/γ′-fibrin
Protocol: as §1, §2, §3

thrombin = thrombin inhibition; cited from earlier work
[7] = given as reduction (positive number)
[8] = maximal change in percentage of bound 125I-thrombin vs no inhibitor
[9] = maximal change in percentage of bound 125I-thrombin vs no inhibitor, listed as hirudin
[10] = maximal change in percentage of bound 125I-thrombin vs no inhibitor, listed as argatroban
[11] = 0–5000 nM inhibitor, 250–500 nM thrombin

Compound: [H]/N=C(/N)c1ccc(NCc2nc3cc(C(=O)N(CCC(=O)O)c4ccccn4)ccc3n2C)cc1 [Dabigatran, dabigatran]
reduction of thrombin binding at saturation [1, 7]: 37.9 ± 3.2%
reduction of thrombin binding at saturation [2, 7]: 47.6 ± 0.4%
Change [3]: -21.4 ± 3.3%
Change [4]: 0%
Change ([4]; listed as dabigatran): no effect
Change [5]: -9.4 ± 1.4%
reduction of thrombin binding at saturation [6, 7]: 28.4 ± 1.6%

Compound: Hirudin
Ki [3]: 3.4 ± 0.3 nM
Change [3, 8]: -100%
Change [3, 9]: fully inhibited
Ki [5]: 3.4 ± 0.1 nM
Change [5, 8]: -100%
Change [5, 9]: fully inhibited

Change [3, 8]: +18.3 ± 5.0%
Change [3, 10]: 15–25%
increase in affinity of thrombin for GpIbα269-286ppp [4]: 25–35%
Change [4]: +17.3 ± 0.6%
Change ([4]; listed as argatroban): 17%
Change [5, 8]: +26.1 ± 0.4%
Change [5, 10]: 15–25%
Compound: CC1CNc2c(cccc2S(=O)(=O)N[C@@H](CCCNC(=N)N)C(=O)N2CC[C@@H](C)C[C@@H]2C(=O)O)C1 (stereo partly shown) [Argatroban, argatroban]

Compound: CCC1CCN(C(=O)C(CCCN=C(N)N)NS(=O)(=O)c2cccc3c(N(C)C)cccc23)CC1 (stereo not shown) [DAPA, dansylarginine N-(3-ethyl-1,5-pentanediyl)amide]
Ki (thrombin): 45 nM
EC50 [1, 11]: 565 ± 200 nM
EC50 ([2]; 0–5000 nM inhibitor, 250–500 nM thrombin, Req vs inhibitor concentration): 514 ± 24 nM
Ki [3]: 2.1 ± 0.9 nM
EC50 ([4]; 0–5000 nM inhibitor, 250 nM thrombin): 1290 ± 32.3 nM
increase in affinity of thrombin for GpIbα269-286ppp [4]: 25–35%
Ki [5]: 19.6 ± 19.1 nM
EC50 [6, 11]: 516 ± 31 nM
